Laboratory results as given in patent publication US20070093554A1, “AGENT FOR IMPROVING FEELING OF COLD” (priority 2005, published 2007).

Test: Improvement in feeling of cold evaluated by Visual Analogue Scale (VAS) method after 3 weeks ingestion of tablets
Assay type: in vivo, human
Conditions: 6 tablets of example 1 a day for 3 weeks, normal subjects 45 to 64 years, vs tablet not containing ornithine; FIG. 2
Experimental: Before the ingestion and just after the ingestion, the improvements in feeling of cold of each subject were evaluated using Visual Analogue Scale (VAS) method.
Specifically each end of the segment has a criterion of expression. Referring to FIG. 1, each subject marked somewhere in the line, corresponding to each term of the questionnaires. The distance (mm) from the left end of the line to the marked point was measured and the difference between before and after the test was calculated. The difference by the value before the test was shown in the percentage calculated; and each average value and standard deviation for each group were calculated. […] Further, it was confirmed that there was no difference between two groups before the administration test.
Further the test was carried out under a random assignment and the comparison between the double blind parallel groups was carried out. The test of the statistically significant difference between two groups was an unpaired t-test of both side distributions using the difference between the beginning and just after the test.

NCCC[C@H](N)C(=O)O [ornithine]
coldness of hands and feet (improvement, VAS): improved remarkably
